Measurements taken from PubChem BioAssay (NCI).
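96-well plates; 48 h exposure; 5 concentrations. Endpoints by linear interpolation between flanking doses. Not reached: highest tested concentration assigned. GI50 is the concentration that inhibits growth by half. At the TGI there is no net growth.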

Columns and labels:
Assay in all cases: NCI-60 cell line screen, 48 h
SF-539 CNS = tested on: SF-539 CNS
UACC-257 melanoma = tested on: UACC-257 melanoma
SF-295 CNS = tested on: SF-295 CNS
A549 NSCLC = tested on: A549 NSCLC
NCI-H23 lung = tested on: NCI-H23 lung
OVCAR-5 ovarian = tested on: OVCAR-5 ovarian
NCI/ADR-RES ovarian = tested on: NCI/ADR-RES ovarian
CAKI-1 renal = tested on: CAKI-1 renal
KM12 colon = tested on: KM12 colon
SF-268 CNS = tested on: SF-268 CNS
UACC-62 melanoma = tested on: UACC-62 melanoma
MDA-MB-435 = tested on: MDA-MB-435
OVCAR-3 ovarian = tested on: OVCAR-3 ovarian
MOLT-4 leukemia = tested on: MOLT-4 leukemia
NCI-H226 lung = tested on: NCI-H226 lung
HCC-2998 colon = tested on: HCC-2998 colon
SK-MEL-2 melanoma = tested on: SK-MEL-2 melanoma
RXF 393 renal = tested on: RXF 393 renal
A498 renal = tested on: A498 renal
HL-60(TB) leukemia = tested on: HL-60(TB) leukemia
NCI-H460 lung = tested on: NCI-H460 lung
HCT-15 colon = tested on: HCT-15 colon
HOP-62 NSCLC = tested on: HOP-62 NSCLC
TK-10 renal = tested on: TK-10 renal
M14 melanoma = tested on: M14 melanoma
SNB-19 CNS = tested on: SNB-19 CNS
SK-MEL-28 melanoma = tested on: SK-MEL-28 melanoma
BT-549 breast = tested on: BT-549 breast
PC-3 prostate = tested on: PC-3 prostate
SK-OV-3 ovarian = tested on: SK-OV-3 ovarian
EKVX NSCLC = tested on: EKVX NSCLC
ACHN renal = tested on: ACHN renal
SN12C renal = tested on: SN12C renal
SW-620 colon = tested on: SW-620 colon
MDA-MB-231 breast = tested on: MDA-MB-231 breast
SNB-75 CNS = tested on: SNB-75 CNS
CCRF-CEM leukemia = tested on: CCRF-CEM leukemia
COLO 205 colon = tested on: COLO 205 colon
HOP-92 NSCLC = tested on: HOP-92 NSCLC
MALME-3M melanoma = tested on: MALME-3M melanoma
HT29 colon = tested on: HT29 colon
IGROV1 ovarian = tested on: IGROV1 ovarian
LOX IMVI melanoma = tested on: LOX IMVI melanoma
U251 CNS = tested on: U251 CNS
K-562 leukemia = tested on: K-562 leukemia
SR leukemia = tested on: SR leukemia
HCT-116 colon = tested on: HCT-116 colon
T-47D breast = tested on: T-47D breast
OVCAR-8 ovarian = tested on: OVCAR-8 ovarian
SK-MEL-5 melanoma = tested on: SK-MEL-5 melanoma
786-0 renal = tested on: 786-0 renal
RPMI-8226 leukemia = tested on: RPMI-8226 leukemia
UO-31 renal = tested on: UO-31 renal
MCF7 breast = tested on: MCF7 breast
NCI-H522 lung = tested on: NCI-H522 lung
DU-145 prostate = tested on: DU-145 prostate

`CN(C)CCCn1c(-c2cc(C(C)(C)C)c(O)c(C(C)(C)C)c2)csc1=Nc1ccccc1` was tested, and the TGI (SF-539 CNS) was 3.38 µM, the TGI (UACC-257 melanoma) was 3.39 µM and the TGI (SF-295 CNS) was 3.26 µM. The TGI (A549 NSCLC) was 3.46 µM, the TGI (NCI-H23 lung) was 3.73 µM and the TGI (OVCAR-5 ovarian) was 4.19 µM. The TGI (NCI/ADR-RES ovarian) was 3.45 µM, the TGI (CAKI-1 renal) was 52.4 µM and the TGI (KM12 colon) was 3.6 µM. It also gave a TGI (SF-268 CNS) of 3.95 µM, a TGI (UACC-62 melanoma) of 4.62 µM and a TGI (MDA-MB-435) of 5 µM. It also gave a TGI (OVCAR-3 ovarian) of 3.04 µM, a TGI (MOLT-4 leukemia) of 0.547 µM and a TGI (NCI-H226 lung) of 3.59 µM. It also gave a TGI (HCC-2998 colon) of 3.65 µM, a TGI (SK-MEL-2 melanoma) of 8.51 µM and a TGI (RXF 393 renal) of 4.01 µM. For the same molecule, the TGI (A498 renal) was 6.94 µM, the TGI (HL-60(TB) leukemia) was 8.76 µM and the TGI (NCI-H460 lung) was 6.58 µM. The TGI (HCT-15 colon) was 9.05 µM, the TGI (HOP-62 NSCLC) was 3.34 µM and the TGI (TK-10 renal) was 5.45 µM. For the same molecule, the TGI (M14 melanoma) was 3.84 µM, the TGI (SNB-19 CNS) was 4.52 µM and the TGI (SK-MEL-28 melanoma) was 4.73 µM. For the same molecule, the TGI (BT-549 breast) was 7.8 µM, the TGI (PC-3 prostate) was 3.58 µM and the TGI (SK-OV-3 ovarian) was 3.94 µM. For the same molecule, the TGI (EKVX NSCLC) was 4.26 µM, the TGI (ACHN renal) was 9.14 µM and the TGI (SN12C renal) was 6.15 µM. For the same molecule, the TGI (SW-620 colon) was > 100 µM, the TGI (MDA-MB-231 breast) was 20.8 µM and the TGI (SNB-75 CNS) was 8.34 µM.

In the case of `COc1ccc2[nH]cc(/C=C3/C(=O)Nc4ccc(Cl)cc43)c2c1`, the GI50 (OVCAR-5 ovarian) is reported as > 100 µM, the TGI (OVCAR-5 ovarian) is reported as > 100 µM and the GI50 (KM12 colon) is reported as 0.352 µM. For the same molecule, the TGI (KM12 colon) was > 100 µM, the GI50 (MOLT-4 leukemia) was > 100 µM and the TGI (MOLT-4 leukemia) was > 100 µM. The GI50 (CCRF-CEM leukemia) was 5.97 µM, the TGI (CCRF-CEM leukemia) was > 100 µM and the GI50 (A498 renal) was > 100 µM. For the same molecule, the TGI (A498 renal) was > 100 µM, the GI50 (HL-60(TB) leukemia) was > 100 µM and the TGI (HL-60(TB) leukemia) was > 100 µM.

`C/C=C1\C(=O)O[C@@H]2C1C[C@@H]1O[C@H]2[C@H](C)CCC/C(C)=C/CC[C@@]1(C)O` (stereo not given in full) gave a GI50 (COLO 205 colon) of 8.16 µM, a TGI (COLO 205 colon) of 41.8 µM and a GI50 (SF-539 CNS) of 2.52 µM. The TGI (SF-539 CNS) was 6.06 µM, the GI50 (HOP-92 NSCLC) was 7.62 µM and the TGI (HOP-92 NSCLC) was 31.5 µM. It also gave a GI50 (UACC-257 melanoma) of 4.2 µM, a TGI (UACC-257 melanoma) of 10.9 µM and a GI50 (SF-295 CNS) of 13.3 µM. The TGI (SF-295 CNS) was 27.6 µM, the GI50 (MALME-3M melanoma) was 3.47 µM and the TGI (MALME-3M melanoma) was 18.5 µM. It also gave a GI50 (A549 NSCLC) of 10.6 µM, a TGI (A549 NSCLC) of 22.5 µM and a GI50 (OVCAR-5 ovarian) of 13.5 µM. For the same molecule, the TGI (OVCAR-5 ovarian) was 26.8 µM, the GI50 (NCI/ADR-RES ovarian) was 3.89 µM and the TGI (NCI/ADR-RES ovarian) was 13.4 µM. For the same molecule, the GI50 (HT29 colon) was 25.4 µM, the TGI (HT29 colon) was > 100 µM and the GI50 (CAKI-1 renal) was 3.47 µM. It also gave a TGI (CAKI-1 renal) of 15.4 µM, a GI50 (KM12 colon) of 13.9 µM and a TGI (KM12 colon) of 31.7 µM. For the same molecule, the GI50 (SF-268 CNS) was 8.45 µM, the TGI (SF-268 CNS) was 23 µM and the GI50 (UACC-62 melanoma) was 7.16 µM. For the same molecule, the TGI (UACC-62 melanoma) was 20.7 µM, the GI50 (MDA-MB-435) was 6.67 µM and the TGI (MDA-MB-435) was 22.9 µM. The GI50 (OVCAR-3 ovarian) was 1.48 µM, the TGI (OVCAR-3 ovarian) was 11.9 µM and the GI50 (IGROV1 ovarian) was 1.29 µM. For the same molecule, the TGI (IGROV1 ovarian) was 3.32 µM, the GI50 (MOLT-4 leukemia) was 4.59 µM and the TGI (MOLT-4 leukemia) was > 100 µM. For the same molecule, the GI50 (LOX IMVI melanoma) was 5.8 µM, the TGI (LOX IMVI melanoma) was 21.5 µM and the GI50 (HCC-2998 colon) was 2.95 µM. It also gave a TGI (HCC-2998 colon) of 6.33 µM, a GI50 (U251 CNS) of 10.3 µM and a TGI (U251 CNS) of 23.6 µM. For the same molecule, the GI50 (SK-MEL-2 melanoma) was 3.66 µM, the TGI (SK-MEL-2 melanoma) was 13.2 µM and the GI50 (CCRF-CEM leukemia) was 3.53 µM. The TGI (CCRF-CEM leukemia) was 11.8 µM, the GI50 (K-562 leukemia) was 9.72 µM and the TGI (K-562 leukemia) was > 100 µM. The GI50 (SR leukemia) was 2.41 µM, the TGI (SR leukemia) was > 100 µM and the GI50 (HCT-116 colon) was 2.81 µM. The TGI (HCT-116 colon) was 10.1 µM, the GI50 (RXF 393 renal) was 2.59 µM and the TGI (RXF 393 renal) was 6.99 µM. The GI50 (T-47D breast) was 42.7 µM, the TGI (T-47D breast) was > 100 µM and the GI50 (OVCAR-8 ovarian) was 2.52 µM. The TGI (OVCAR-8 ovarian) was 6.76 µM, the GI50 (HL-60(TB) leukemia) was 5.55 µM and the TGI (HL-60(TB) leukemia) was > 100 µM. For the same molecule, the GI50 (NCI-H460 lung) was 4.81 µM, the TGI (NCI-H460 lung) was 25.7 µM and the GI50 (SK-MEL-5 melanoma) was 3.03 µM. The TGI (SK-MEL-5 melanoma) was 9.4 µM, the GI50 (786-0 renal) was 3.21 µM and the TGI (786-0 renal) was 14.2 µM. The GI50 (HCT-15 colon) was 5.51 µM, the TGI (HCT-15 colon) was 21.8 µM and the GI50 (TK-10 renal) was 4.46 µM. It also gave a TGI (TK-10 renal) of 13.5 µM, a GI50 (SNB-19 CNS) of 19.4 µM and a TGI (SNB-19 CNS) of 40.6 µM. The GI50 (RPMI-8226 leukemia) was 3.27 µM, the TGI (RPMI-8226 leukemia) was > 100 µM and the GI50 (UO-31 renal) was 3.02 µM. The TGI (UO-31 renal) was 10.4 µM, the GI50 (SK-MEL-28 melanoma) was 0.38 µM and the TGI (SK-MEL-28 melanoma) was 21.9 µM. It also gave a GI50 (MCF7 breast) of 2.33 µM, a TGI (MCF7 breast) of 6.1 µM and a GI50 (PC-3 prostate) of 11.8 µM. For the same molecule, the TGI (PC-3 prostate) was 25.8 µM, the GI50 (SK-OV-3 ovarian) was 14.1 µM and the TGI (SK-OV-3 ovarian) was 37.4 µM. For the same molecule, the GI50 (EKVX NSCLC) was 2.22 µM, the TGI (EKVX NSCLC) was 5.53 µM and the GI50 (NCI-H522 lung) was 2.29 µM. The TGI (NCI-H522 lung) was 7.06 µM, the GI50 (ACHN renal) was 2.77 µM and the TGI (ACHN renal) was 14.5 µM. The GI50 (SN12C renal) was 3.54 µM, the TGI (SN12C renal) was 13 µM and the GI50 (SW-620 colon) was 4.14 µM. For the same molecule, the TGI (SW-620 colon) was 15 µM, the GI50 (MDA-MB-231 breast) was 8.36 µM and the TGI (MDA-MB-231 breast) was 21.7 µM. It also gave a GI50 (SNB-75 CNS) of 9.81 µM and a TGI (SNB-75 CNS) of 33.4 µM.

Molecule `CC(C)(C)c1ccc2c(c1)CNCCNCCNCc1cc(C(C)(C)C)ccc1OCC1(CO2)COc2ccc(C(C)(C)C)cc2CNCCNCCNCc2cc(C(C)(C)C)ccc2OC1` has a TGI (DU-145 prostate) of 2.83 µM, a TGI (CAKI-1 renal) of 3.17 µM and a TGI (KM12 colon) of 0.562 µM. It also gave a TGI (NCI-H226 lung) of 1.97 µM, a TGI (RXF 393 renal) of 3.74 µM and a TGI (M14 melanoma) of 1.83 µM. For the same molecule, the TGI (MCF7 breast) was 0.379 µM, the TGI (ACHN renal) was 2.83 µM and the TGI (SW-620 colon) was 1.33 µM.
